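These data come from cells grown in 96-well plates and exposed to compound for 48 hours at five concentrations. Abbreviation: GI50, concentration required for 50% inhibition of growth.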 The source made the active and inactive calls. No stated cut-off is given here; in the data, active = GI50 up to about 1.1 µM and inactive = higher. Where a SMILES comes first, the peptide text is derived from it. The star is where a group is joined. Cbz = O=C(OCc1ccccc1)*; Bn = c1ccc(C*)cc1
Key:
Assay in all cases: DTP human tumour cell line panel, 48 h
ACHN = system: ACHN
DLD-1 = system: DLD-1
DMS-114 = system: DMS-114
HCT-116 = system: HCT-116
HOP-18 = system: HOP-18
LXFL 529 = system: LXFL 529
Malme-3M = system: Malme-3M
OVCAR-4 = system: OVCAR-4
SK-MEL-2 = system: SK-MEL-2
SN12C = system: SN12C
SNB-19 = system: SNB-19
TK-10 = system: TK-10
UACC-257 = system: UACC-257
UACC-62 = system: UACC-62
XF498 = system: XF498
A498 = system: A498
NCI/ADR-RES = system: NCI/ADR-RES
MDA-MB-231 = system: MDA-MB-231
MDA-MB-435 = system: MDA-MB-435
PC-3 = system: PC-3

Row | SMILES | GI50 (ACHN) | GI50 (DLD-1) | GI50 (DMS-114) | GI50 (HCT-116) | GI50 (HOP-18) | GI50 (LXFL 529) | GI50 (Malme-3M) | GI50 (OVCAR-4) | GI50 (SK-MEL-2) | GI50 (SN12C) | GI50 (SNB-19) | GI50 (TK-10) | GI50 (UACC-257) | GI50 (UACC-62) | GI50 (XF498) | GI50 (A498) | GI50 (NCI/ADR-RES) | GI50 (MDA-MB-231) | GI50 (MDA-MB-435) | GI50 (PC-3)
1 | CCOC(=O)C(=O)Nc1ccccc1CC | > 100 µM (inactive) | > 100 µM (inactive) | > 100 µM (inactive) | > 100 µM (inactive) | > 100 µM (inactive) | > 100 µM (inactive) | > 100 µM (inactive) | > 100 µM (inactive) | > 100 µM (inactive) | > 100 µM (inactive) | > 100 µM (inactive) | > 100 µM (inactive) | > 100 µM (inactive) | > 100 µM (inactive) | > 100 µM (inactive) | – | – | – | – | –
2 | COc1cc2oc(-c3ccc(O)cc3)cc(=O)c2c(O)c1C1OC(CO)C(O)C(O)C1O (centres undefined) | > 100 µM (inactive) | > 100 µM (inactive) | > 100 µM (inactive) | > 100 µM (inactive) | > 100 µM (inactive) | > 100 µM (inactive) | > 100 µM (inactive) | > 100 µM (inactive) | > 100 µM (inactive) | > 100 µM (inactive) | > 100 µM (inactive) | > 100 µM (inactive) | > 100 µM (inactive) | > 100 µM (inactive) | > 100 µM (inactive) | > 100 µM (inactive) | – | – | – | –
3 | CC1=C(C(=O)Nc2ccccc2)C(c2ccc3c(c2)OCO3)C(C(=O)Nc2ccccc2)=C(C)N1 | 33.7 µM (inactive) | 36.8 µM (inactive) | 26.2 µM (inactive) | – | 41.5 µM (inactive) | 20 µM (inactive) | 62.1 µM (inactive) | 21.6 µM (inactive) | 28.8 µM (inactive) | 34.2 µM (inactive) | 25.7 µM (inactive) | 59.7 µM (inactive) | 40.9 µM (inactive) | 30.1 µM (inactive) | 24.2 µM (inactive) | 19.5 µM (inactive) | – | – | – | –
4 | OCc1ccccc1C1CSCSC1 | > 100 µM (inactive) | > 100 µM (inactive) | > 100 µM (inactive) | > 100 µM (inactive) | – | > 100 µM (inactive) | > 100 µM (inactive) | > 100 µM (inactive) | > 100 µM (inactive) | > 100 µM (inactive) | – | > 100 µM (inactive) | > 100 µM (inactive) | > 100 µM (inactive) | > 100 µM (inactive) | – | – | – | – | –
5 | CCCCCCCCCC/C=C/C=O | > 100 µM (inactive) | > 100 µM (inactive) | > 100 µM (inactive) | > 100 µM (inactive) | > 100 µM (inactive) | > 100 µM (inactive) | > 100 µM (inactive) | – | > 100 µM (inactive) | > 100 µM (inactive) | > 100 µM (inactive) | > 100 µM (inactive) | > 100 µM (inactive) | > 100 µM (inactive) | > 100 µM (inactive) | > 100 µM (inactive) | – | – | – | –
6 | COc1ccc(Nc2nc3ccccc3nc2-c2cccs2)cc1 | > 100 µM (inactive) | > 100 µM (inactive) | 92.9 µM (inactive) | > 100 µM (inactive) | > 100 µM (inactive) | 54.5 µM (inactive) | > 100 µM (inactive) | > 100 µM (inactive) | > 100 µM (inactive) | > 100 µM (inactive) | > 100 µM (inactive) | > 100 µM (inactive) | > 100 µM (inactive) | > 100 µM (inactive) | 78.2 µM (inactive) | 42.6 µM (inactive) | – | – | – | –
7 | N#CCC(=O)N/N=C1/C(=O)N(c2ccc(Cl)cc2)C(=O)C(=O)C1c1nc2ccccc2s1 (centres undefined) | > 100 µM (inactive) | > 100 µM (inactive) | > 100 µM (inactive) | 53.7 µM (inactive) | – | > 100 µM (inactive) | > 100 µM (inactive) | > 100 µM (inactive) | 89.9 µM (inactive) | > 100 µM (inactive) | > 100 µM (inactive) | > 100 µM (inactive) | 65.6 µM (inactive) | 60.3 µM (inactive) | > 100 µM (inactive) | > 100 µM (inactive) | – | – | – | –
8 | C=CC[N+](CCO)(CCO)CCCCCCCCCCCCCCCCCC | – | 5.93 µM (inactive) | 3.96 µM (inactive) | 3.4 µM (inactive) | 8.34 µM (inactive) | – | 14.8 µM (inactive) | 3.88 µM (inactive) | 14.5 µM (inactive) | 6.78 µM (inactive) | 8.91 µM (inactive) | – | 6.38 µM (inactive) | 4.58 µM (inactive) | – | 15.6 µM (inactive) | 23.5 µM (inactive) | – | – | –
9 | CCOC(=O)C1(Cc2ccc3ccccc3c2)CCCCC(=O)N1 (centres undefined) | 67.5 µM (inactive) | 25.6 µM (inactive) | 18.6 µM (inactive) | – | > 100 µM (inactive) | 38 µM (inactive) | 11.9 µM (inactive) | 36.1 µM (inactive) | – | 44.5 µM (inactive) | 36.5 µM (inactive) | 56.1 µM (inactive) | – | 36.1 µM (inactive) | 30.4 µM (inactive) | – | – | – | – | –
10 | C=CCCCCn1c2ccccc2c2c(C)c3cnccc3c(C)c21 | – | 7.11 µM (inactive) | 3.94 µM (inactive) | 4.63 µM (inactive) | 16.1 µM (inactive) | – | 9.02 µM (inactive) | 6.5 µM (inactive) | 13.4 µM (inactive) | 8.67 µM (inactive) | 15.3 µM (inactive) | – | 4.5 µM (inactive) | 11.2 µM (inactive) | 1.95 µM (inactive) | 5.86 µM (inactive) | 5.07 µM (inactive) | – | – | –
11 | C1CCC(OCc2nnn3c2CCC3)OC1 (centres undefined) | > 100 µM (inactive) | > 100 µM (inactive) | – | > 100 µM (inactive) | < 0.01 µM (active) | > 100 µM (inactive) | > 100 µM (inactive) | > 100 µM (inactive) | > 100 µM (inactive) | > 100 µM (inactive) | – | > 100 µM (inactive) | > 100 µM (inactive) | > 100 µM (inactive) | > 100 µM (inactive) | – | – | – | – | –
12 | Nc1c(/N=N/c2ccc(-c3ccc(/N=N/c4c(O)ccc5cc(S(=O)(=O)O)cc(S(=O)(=O)O)c45)cc3)cc2)c(S(=O)(=O)O)cc2cc(S(=O)(=O)O)c(/N=N/c3ccccc3)c(O)c12 | – | > 100 µM (inactive) | > 100 µM (inactive) | > 100 µM (inactive) | > 100 µM (inactive) | – | > 100 µM (inactive) | > 100 µM (inactive) | > 100 µM (inactive) | > 100 µM (inactive) | > 100 µM (inactive) | – | > 100 µM (inactive) | > 100 µM (inactive) | > 67.6 µM (inactive) | > 100 µM (inactive) | > 100 µM (inactive) | – | – | –
13 | N/C(S)=N/N=C/c1ccc(O)cn1 | 1.73 µM (inactive) | 21.4 µM (inactive) | – | 10.9 µM (inactive) | 27.1 µM (inactive) | 19.7 µM (inactive) | 7.55 µM (inactive) | – | – | 5.35 µM (inactive) | 12.9 µM (inactive) | 105 µM (inactive) | 22.4 µM (inactive) | – | 12.4 µM (inactive) | 32 µM (inactive) | 4.01 µM (inactive) | 18.5 µM (inactive) | 10.5 µM (inactive) | 7.1 µM (inactive)
14 | CC1=C(C(=O)Nc2cccc(Cl)c2)C(c2ccc([N+](=O)[O-])cc2)C(C(=O)Nc2cccc(Cl)c2)=C(C)N1 | 25.1 µM (inactive) | 21.8 µM (inactive) | 21.2 µM (inactive) | 13.1 µM (inactive) | 16.5 µM (inactive) | 23.5 µM (inactive) | 21 µM (inactive) | 20.7 µM (inactive) | 18.3 µM (inactive) | 22.3 µM (inactive) | 37.2 µM (inactive) | 67.3 µM (inactive) | 16.7 µM (inactive) | 14 µM (inactive) | – | 33.1 µM (inactive) | – | – | – | –
15 | Cn1cc(C(=O)c2ccccc2)ccc1=O | > 100 µM (inactive) | > 100 µM (inactive) | > 100 µM (inactive) | > 100 µM (inactive) | – | > 100 µM (inactive) | > 100 µM (inactive) | > 100 µM (inactive) | > 100 µM (inactive) | > 100 µM (inactive) | > 100 µM (inactive) | > 100 µM (inactive) | > 100 µM (inactive) | > 100 µM (inactive) | > 100 µM (inactive) | – | – | – | – | –
16 | C/C=C/c1cc2c(c(=O)o1)C(=O)[C@@H](O)[C@H](C)O2 | – | 6.28 µM (inactive) | 6.75 µM (inactive) | 7.8 µM (inactive) | 17.5 µM (inactive) | – | 17.3 µM (inactive) | 15.4 µM (inactive) | 18.8 µM (inactive) | 15.4 µM (inactive) | 19.5 µM (inactive) | – | 14.4 µM (inactive) | 17.5 µM (inactive) | – | 12 µM (inactive) | 15.9 µM (inactive) | – | – | –
17 | COCCOc1nc(-c2ccccc2)nc2ccccc12 | 44.1 µM (inactive) | – | – | 46.1 µM (inactive) | – | – | 51.1 µM (inactive) | 37.3 µM (inactive) | 51.8 µM (inactive) | 27.5 µM (inactive) | 69.2 µM (inactive) | 36 µM (inactive) | > 100 µM (inactive) | 20.7 µM (inactive) | – | 15 µM (inactive) | 32.6 µM (inactive) | 31 µM (inactive) | 52.4 µM (inactive) | 34.5 µM (inactive)
18 | COC(=O)C(Cc1ccc(O)cc1)NC(=O)C(COCc1ccccc1)NC(=O)OCc1ccccc1 (centres undefined) (Cbz-Ser(Bn)-Tyr-OMe; configuration not given here) | 17.4 µM (inactive) | – | – | 20.9 µM (inactive) | – | – | 21.3 µM (inactive) | 19.4 µM (inactive) | 23 µM (inactive) | 18.4 µM (inactive) | 16.9 µM (inactive) | 20 µM (inactive) | 19.3 µM (inactive) | 17 µM (inactive) | – | 26.3 µM (inactive) | 19.6 µM (inactive) | 18.8 µM (inactive) | 19.1 µM (inactive) | 19.1 µM (inactive)

Source: ChEMBL document CHEMBL1201862, “PubChem BioAssay data set” (2004)
